ChEMBL document CHEMBL4049458, “Structure-Based Optimization of Thiophene[3,2-d]pyrimidine Derivatives as Potent HIV-1 Non-nucleoside Reverse Transcriptase Inhibitors with Improved Potency against Resistance-Associated Variants” (J Med Chem, 2017)

What was measured:
[1] = Selectivity index, ratio of CC50 for human MT4 cells to EC50 for reverse transcriptase F227L/V106A double mutant in human MT4 cells infected HIV1 3B
[2] = Selectivity index, ratio of CC50 for human MT4 cells to EC50 for wild type HIV1 3B harboring reverse transcriptase infected in human MT4 cells
[3] = Selectivity index, ratio of CC50 for human MT4 cells to EC50 for HIV1 RES056 reverse transcriptase K103N/Y181C double mutant infected in human MT4 cells
[4] = test system: Human immunodeficiency virus 1; experiment: Antiviral activity against wild type HIV1 3B harboring reverse transcriptase infected in human MT4 cells assessed as protection against virus induced cytotoxicity after 5 days by MTT assay; assay type: functional, cell-based; settings: Human immunodeficiency virus 1, 3B, MT4, 120 h
[5] = Selectivity index, ratio of CC50 for human MT4 cells to EC50 for reverse transcriptase K103N mutant in human MT4 cells infected HIV1 3B
[6] = Selectivity index, ratio of CC50 for human MT4 cells to EC50 for reverse transcriptase Y188L mutant in human MT4 cells infected HIV1 3B
[7] = Selectivity index, ratio of CC50 for human MT4 cells to EC50 for reverse transcriptase Y181C mutant in human MT4 cells infected HIV1 3B
[8] = Selectivity index, ratio of CC50 for human MT4 cells to EC50 for reverse transcriptase E138K mutant in human MT4 cells infected HIV1 3B
[9] = Selectivity index, ratio of CC50 for human MT4 cells to EC50 for reverse transcriptase L100I mutant in human MT4 cells infected HIV1 3B
[10] = test system: Human immunodeficiency virus 2; experiment: Antiviral activity against HIV2 ROD harboring reverse transcriptase infected in human MT4 cells assessed as protection against virus induced cytotoxicity after 5 days by MTT assay; assay type: functional, cell-based; settings: Human immunodeficiency virus 2, ISOLATE ROD, MT4, 120 h
[11] = Cytotoxicity against human MT4 cells assessed as cell viability after 5 days by MTT assay; assay type: cell-based

SMILES | selectivity ratio ([1]; MT4 cells) | selectivity ratio ([2]; MT4 cells) | selectivity ratio ([3]; MT4 cells) | EC50 [4] [µM] | selectivity ratio ([5]; MT4 cells) | selectivity ratio ([6]; MT4 cells) | selectivity ratio ([7]; MT4 cells) | selectivity ratio ([8]; MT4 cells) | selectivity ratio ([9]; MT4 cells) | EC50 [10] [µM] | CC50 at 120 h [11] [µM] | selectivity ratio [1] | selectivity ratio [2] | selectivity ratio [3] | selectivity ratio [5] | selectivity ratio [6] | selectivity ratio [7] | selectivity ratio [8] | selectivity ratio [9]
Cc1cc(/C=C/C#N)cc(C)c1Oc1nc(NC2CCN(Cc3ccccc3Br)CC2)nc2ccsc12 | 63 | 140 | 16 | 0.0402 | 124 | 37 | 45 | 39 | 117 | > 5.61 | 5.61 | – | – | – | – | – | – | – | –
Cc1cc(C#N)cc(C)c1Oc1nc(NC2CCN(Cc3cccc(C(N)=O)c3)CC2)nc2sccc12 | > 1930 | > 9420 | > 10 | 0.00517 | > 5490 | > 2870 | > 5300 | > 5610 | > 4630 | > 48.7 | > 48.7 | – | – | – | – | – | – | – | –
COC(=O)c1ccc(CN2CCC(Nc3nc(Oc4c(C)cc(C#N)cc4C)c4ccsc4n3)CC2)cc1 | 109 | 5450 | 19 | 0.00526 | 982 | 181 | 316 | 805 | 214 | > 28.6 | 28.6 | – | – | – | – | – | – | – | –
Cc1cc(/C=C/C#N)cc(C)c1Oc1nc(NC2CCN(Cc3ccc(Cl)cc3)CC2)nc2ccsc12 | 37 | 156 | 20 | 0.0256 | 159 | 22 | 51 | 26 | 93 | > 3.98 | 3.98 | – | – | – | – | – | – | – | –
Cc1cc(C#N)cc(C)c1Oc1nc(NC2CCN(Cc3ccc(C(N)=O)cc3)CC2)nc2sccc12 | < 1 | 32 | 3 | 0.152 | 11 | < 1 | 20 | 6 | 9 | > 4.93 | 4.93 | – | – | – | – | – | – | – | –
O=C1Nc2ccc(Cl)cc2[C@@](C#CC2CC2)(C(F)(F)F)O1 [EFAVIRENZ] | – | – | – | – | – | – | – | – | – | – | > 6.33 | – | – | – | – | – | – | – | –
Cc1cc(/C=C/C#N)cc(C)c1Oc1nc(NC2CCN(Cc3cccc(F)c3)CC2)nc2ccsc12 | 84 | 489 | 38 | 0.00973 | 226 | 30 | 138 | 150 | 216 | > 4.76 | 4.76 | – | – | – | – | – | – | – | –
Cc1ccccc1CN1CCC(Nc2nc(Oc3c(C)cc(/C=C/C#N)cc3C)c3sccc3n2)CC1 | 46 | 180 | 3 | 0.0157 | 114 | 16 | 33 | 22 | 60 | > 2.83 | 2.83 | – | – | – | – | – | – | – | –
Cc1cn([C@H]2C[C@H](N=[N+]=[N-])[C@@H](CO)O2)c(=O)[nH]c1=O [ZIDOVUDINE] | – | – | – | 0.00581 | – | – | – | – | – | – | > 7.48 | > 1560 | 625 | > 675 | > 1430 | > 1180 | > 1120 | > 1030 | > 1990
Cc1cc(C#N)cc(C)c1Oc1nc(NC2CCC(NCc3ccc(O)cc3)CC2)nc2ccsc12 (stereo unspecified) | < 1 | 15 | < 1 | 1.31 | 4 | < 1 | < 1 | 5 | < 1 | > 20.1 | 20.1 | – | – | – | – | – | – | – | –
Cc1cc(/C=C/C#N)cc(C)c1Oc1nc(NC2CCN(Cc3ccccc3C#N)CC2)nc2ccsc12 | 60 | 236 | 7 | 0.00966 | 130 | 18 | 66 | 53 | 151 | > 2.28 | 2.28 | – | – | – | – | – | – | – | –
Cc1cc(/C=C/C#N)cc(C)c1Oc1nc(NC2CCN(Cc3ccc(Br)cc3)CC2)nc2ccsc12 | 42 | 240 | 44 | 0.0283 | 227 | 24 | 53 | 44 | 117 | > 6.79 | 6.79 | – | – | – | – | – | – | – | –
Cc1cc(C#N)cc(C)c1Oc1nc(NC2CCC(NCc3cccc(C(N)=O)c3)CC2)nc2ccsc12 (stereo unspecified) | – | – | – | 0.135 | – | – | – | – | – | – | 9.21 | – | – | – | – | – | – | – | –
Cc1cc(/C=C/C#N)cc(C)c1Oc1nc(NC2CCN(Cc3ccccc3Cl)CC2)nc2ccsc12 | 68 | 179 | 30 | 0.0274 | 169 | 24 | 37 | 31 | 162 | > 4.93 | 4.93 | – | – | – | – | – | – | – | –
Cc1cc(/C=C/C#N)cc(C)c1Oc1nc(NC2CCN(Cc3cccc(C#N)c3)CC2)nc2ccsc12 | 107 | 639 | 24 | 0.00443 | 470 | 55 | 105 | 101 | 352 | > 2.83 | 2.82 | – | – | – | – | – | – | – | –
CCOC(=O)c1ccc(CN2CCC(Nc3nc(Oc4c(C)cc(C#N)cc4C)c4ccsc4n3)CC2)cc1 | > 63 | > 2330 | > 6 | 0.0989 | > 625 | > 124 | > 207 | > 463 | > 160 | > 230 | > 230 | – | – | – | – | – | – | – | –
Cc1cc(/C=C/C#N)cc(C)c1Oc1nc(NC2CCN(Cc3ccc(F)cc3)CC2)nc2ccsc12 | 25 | 441 | 20 | 0.00586 | 405 | 17 | 95 | 74 | 181 | > 2.58 | 2.58 | – | – | – | – | – | – | – | –
Cc1ccnc2c1NC(=O)c1cccnc1N2C1CC1 [NEVIRAPINE] | – | – | – | – | – | – | – | – | – | – | > 15 | – | – | – | – | – | – | – | –
Cc1cc(C#N)cc(C)c1Oc1nc(NC2CCC(NCc3ccc(F)cc3)CC2)nc2ccsc12 (stereo unspecified) | < 1 | 5 | < 1 | 0.553 | 3 | < 1 | < 1 | ≤ 2 | 3 | > 2.76 | 2.76 | – | – | – | – | – | – | – | –
Cc1cc(/C=C/C#N)cc(C)c1Oc1nc(NC2CCN(Cc3ccc(C#N)cc3)CC2)nc2ccsc12 | 118 | 509 | 45 | 0.00526 | 494 | 81 | 86 | 91 | 364 | > 2.68 | 2.67 | – | – | – | – | – | – | – | –
CCOC(=O)C1CN(Cc2ccc(S(N)(=O)=O)cc2)CCC1Nc1nc(Oc2c(C)cc(C#N)cc2C)c2sccc2n1 (stereo unspecified) | 3 | 32 | ≤ 5 | 0.134 | 18 | < 1 | 23 | 7 | 11 | > 4.24 | 4.24 | – | – | – | – | – | – | – | –
Cc1cc(C#N)cc(C)c1Oc1nc(NC2CCN(Cc3ccc(S(N)(=O)=O)cc3)CC2C(=O)O)nc2ccsc12 (stereo unspecified) | 11 | 38 | < 1 | 0.723 | 33 | 9 | 8 | 8 | 17 | > 27.6 | 27.6 | – | – | – | – | – | – | – | –
Cc1cc(C#N)cc(C)c1Oc1nc(NC2CCC(NCc3ccccc3)CC2)nc2ccsc12 (stereo unspecified) | 3 | 13 | < 1 | 0.23 | 4 | < 1 | < 1 | 3 | 3 | > 2.97 | 2.97 | – | – | – | – | – | – | – | –
Cc1cc(C#N)cc(C)c1Oc1nc(NC2CCC(NCc3ccc(C(N)=O)cc3)CC2)nc2ccsc12 (stereo unspecified) | – | – | – | 0.121 | – | – | – | – | – | – | 7.72 | – | – | – | – | – | – | – | –
Cc1cc(C#N)cc(C)c1Oc1nc(NC2CCCN(Cc3ccc(S(N)(=O)=O)cc3)C2)nc2ccsc12 (stereo unspecified) | – | – | – | > 1.17 | – | – | – | – | – | – | 1.17 | – | – | – | – | – | – | – | –
Cc1cc(/C=C/C#N)cc(C)c1Oc1nc(NC2CCN(Cc3ccc(C(N)=O)cc3)CC2)nc2ccsc12 | – | – | – | 0.00126 | – | – | – | – | – | – | ≥ 3.15 | – | – | – | – | – | – | – | –
Cc1cc(C#N)cc(C)c1Oc1nc(NC2CCCN(Cc3ccc(C(N)=O)cc3)C2)nc2ccsc12 (stereo unspecified) | – | – | – | 3.22 | – | – | – | – | – | – | 19.5 | – | – | – | – | – | – | – | –
